# Assay results published in patent US20230255943A1, “MMP-9 AND MMP-12 INHIBITION FOR TREATING SPINAL CORD INJURY OR RELATED INJURY TO NEUROLOGICAL TISSUE” (The University of Birmingham, priority 2020, published 2023).
# Test system: SCI-induced oedema
# Assay: Example 3: spinal cord water content with aquaporin-4 relocalisation inhibitors
# Conditions: in vivo
# Experimental: The lesion site+3 mm either side for mice and the lesion site+5 mm either side for the rat DC model were dissected out and the water content of the spinal cord (as a measure of oedema) was determined at 3 days after DC and CC SCI, as described previously (S. Li, C. H. Tator, Effects of MK801 on evoked potentials, spinal cord blood flow and cord edema in acute spinal cord injury in rats. Spinal Cord 37, 820-832 (1999)). Spinal cords containing the lesion site were weighed on aluminium foil, dried at 105° C. for 24 hr, and re-weighed. The percent water content was calculated as: water content (%)=[(wet weight-dry weight)/wet weight]×100%.
# Using similar techniques to those described in Example 1, the water content in the spinal cord as a measure of injury-induced oedema was determined for various agents and aquaporin-4 inhibitors, namely TFP, PKAi, PKCi and TGN-020—see FIG. 21.
structure (smiles),measurement,value
"O=C(Nc1nncs1)c1cccnc1 [TGN-020, N-1,3,4-Thiadiazol-2-yl-3-pyridinecarboxamide]","SCI-induced oedema, water content (FIG. 21)",suppress SCI-induced oedema
